US8686224B2, “Plant defense signal peptides” (priority 2005, dated 2014)
pEC50, pKd: −log10 of the molar value. Non-standard residues stand in square brackets, D forms with d. Residues, ends and D or L forms follow the SMILES beside them. Primed or numbered codes have the meaning given here. No end group written: not given here. *: point of attachment. APDP″ = photoaffinity cross-linker coupled to Cys through a disulfide bond, [N-]=[N+]=Nc1ccc(C(=O)NCCCCNC(=O)CCS*)c(O)c1; Tyr(3-I) = N[C@@H](Cc1ccc(O)c(I)c1)C(=O)O

Key:
[1] = tested on: Arabidopsis suspension cultured cells; test: Alkalinization assay with Arabidopsis suspension cultured cells; type: cell-based, Arabidopsis thaliana
Experimental: For the alkalinization assay, cells suspensions are grown in a volume of 40 ml in a 125 ml flask. Tobacco and Arabidopsis cells are typically grown for 3-5 days before use. Tomato cells are typically grown for 4-7 days before use. Soybean cells are generally grown for 3-7 days before use. Preferably, cells are in mid to log or log phase when they are to be used for the alkalinization assay. A 1 ml pipette tip with the end cut off (to prevent clogging of the tip with the cells) is used to aliquot 1 ml of the cells from the suspension into a well in a 24-well culture cluster plate. The flask is swirled between aliquots to ensure that the cells remain evenly dispersed throughout the cell suspension and an roughly equivalent number of cells is provided to each well. The plate(s) are then shaken at 160 rpm for 1 hour. Small aliquots ([…]) of extracted peptide fractions are then added to the wells. After 20 min, the pH of the cell media is measured and recorded.
Alkalinization Assay. Arabidopsis suspension cells were grown with shaking in the dark in 125 mL flasks, using 40 mL NT media as previously described (Pearce et al. Proc. Natl. Acad. Sci. USA 98:12843-12847, 2001). The cells were transferred weekly (2.5 mL) and used for assays 3-5 days after transfer. One mL aliquots of cells were transferred to wells of 24-well culture plates and allowed to equilibrate for one hour while agitated on a rotary shaker at 160 rpm. Aliquots of 1-10 μL from extracts or fractions eluted from HPLC columns were added to cells and the pH of the media was monitored after 20 min.
Alkalinization assay. Medium alkalinization activity of Arabidopsis suspension cultured cells by AtPep1 analogs was analyzed as previously described for systemin (Pearce et al., Science 253:895-897, 1991), RALF (Pearce et al. Proc. Natl. Acad. Sci. USA 98:12843-12847, 2001), HypSys peptides (Pearce and Ryan. J. Biol. Chem. 278:30044-30050, 2003; Pearce et al., Nature 411:817-820, 2001), and AtPep1 (supra). The alkalinization activity of azido-Cys-AtPep1 were carried out after incubation the analog with cells in darkness for 10 min, when the pH was recorded.
Analogs of AtPep1 from the C-terminus of AtPep1 were synthesized and assayed in the alkalinization assay. One mL aliquots of 4 day old Arabidopsis cells were allowed to equilibrate on an orbital shaker at 180 rpm for one hour. A 10 μL aliquot of each peptide solution was added to the cells. Peptide concentrations of 0.25 nM, 2.5 nM, and 25 nM were tested. After 20 min, the pH of the media was recorded.
The 15-mer from the carboxy-terminus of AtPep1 ([…] (SEQ ID NO: 78)) was substituted with alanine at each position to assess which amino acids were necessary for the alkalinizing activity. […] The set of substituted 15-mer peptides was assayed using four-day-old Arabidopsis cells. […] of each peptide (2.5 pmoles) was added to 1 ml of cells to make a final concentration of 2.5 nM. After 20 min, the pH of the media was recorded. The data is the average of three separate experiments.

[2] = target: T1, AtPep1 receptor (At1g73080, AtPEPR1) (Arabidopsis thaliana, UniProt Q9SSL9); test: Binding assay of 125I1-Tyr-AtPep1 with Arabidopsis suspension cultured cells
T1 sequence (Q9SSL9 29-1123): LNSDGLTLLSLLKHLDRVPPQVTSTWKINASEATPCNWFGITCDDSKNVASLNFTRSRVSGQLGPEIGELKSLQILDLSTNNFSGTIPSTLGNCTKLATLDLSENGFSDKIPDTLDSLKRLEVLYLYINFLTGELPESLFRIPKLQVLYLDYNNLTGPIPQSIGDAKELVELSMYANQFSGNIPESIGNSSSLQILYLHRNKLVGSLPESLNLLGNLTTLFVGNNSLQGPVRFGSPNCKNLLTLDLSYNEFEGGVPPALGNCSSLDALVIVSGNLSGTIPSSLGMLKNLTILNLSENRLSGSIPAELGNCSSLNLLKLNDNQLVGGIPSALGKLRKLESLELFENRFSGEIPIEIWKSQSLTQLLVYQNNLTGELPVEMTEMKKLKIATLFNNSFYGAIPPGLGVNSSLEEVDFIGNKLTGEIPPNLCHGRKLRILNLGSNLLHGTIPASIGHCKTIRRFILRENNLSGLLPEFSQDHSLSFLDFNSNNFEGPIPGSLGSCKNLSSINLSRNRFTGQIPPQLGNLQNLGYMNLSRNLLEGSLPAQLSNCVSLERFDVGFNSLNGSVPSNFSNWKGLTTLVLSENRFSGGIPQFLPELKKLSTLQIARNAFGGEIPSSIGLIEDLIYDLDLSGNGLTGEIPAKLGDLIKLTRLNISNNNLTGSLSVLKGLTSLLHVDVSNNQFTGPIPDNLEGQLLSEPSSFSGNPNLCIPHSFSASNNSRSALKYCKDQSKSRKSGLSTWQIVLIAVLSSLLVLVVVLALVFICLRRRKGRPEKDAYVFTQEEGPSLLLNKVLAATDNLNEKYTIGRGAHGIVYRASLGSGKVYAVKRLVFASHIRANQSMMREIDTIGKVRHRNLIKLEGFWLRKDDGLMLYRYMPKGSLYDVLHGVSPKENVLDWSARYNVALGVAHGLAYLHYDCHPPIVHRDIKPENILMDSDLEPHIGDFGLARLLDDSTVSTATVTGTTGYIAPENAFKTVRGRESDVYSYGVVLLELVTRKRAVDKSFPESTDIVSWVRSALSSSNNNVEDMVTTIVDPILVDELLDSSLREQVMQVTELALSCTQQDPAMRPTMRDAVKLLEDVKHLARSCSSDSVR
Experimental: Binding assays. […] The filtered cells were washed three times with 5 mL of cold MS medium containing 3% sucrose, suspended in 1 mL MS medium containing 3% sucrose in a glass test tube, and analyzed for total radioactivity in a gamma-ray counter (Isodata 2020; Isodata Inc., Palatine, Ill.).

[3] = target: T2, AtPEPR1 (Arabidopsis thaliana, UniProt Q9SSL9); test: Medium alkalinization of transgenic tobacco cells expressing AtPEPR1; type: cell-based; settings: for change in pH: 2.5 nanomolar
T2 construct: Tobacco cells were transformed with a CaMV-35S-AtPEPR1 gene; expressed in transfected cells; host or cells: tobacco suspension-cultured cells (Agrobacterium-mediated, CaMV 35S promoter)
T2 sequence (Q9SSL9 29-1123): T1 sequence (Q9SSL9 29-1123)
Description: Tobacco cells were transformed with a CaMV-35S-AtPEPR1 gene to determine whether the foreign receptor protein was targeted to the cell surface, where, in response to AtPep1, it would activate intracellular signaling to effect the alkalinization of the medium of the transgenic tobacco cells. Expression of the AtPEPR1 gene was confirmed by RT-PCR analysis of RNA from three independently transformed tobacco cell lines. […] AtPep2-7 was also supplied to the transgenic tobacco cells expressing AtPEPR1.
To clarify whether AtPEPR2 binds to AtPep1, the AtPEPR2 coding region was fused to the CaMV 35S promoter and introduced into tobacco suspension-cultured cells by Agrobacterium. Tobacco cells expressing AtPEPR1 and GUS genes were also created as positive and negative controls, respectively. […] These transgenic lines were analyzed for alkalinizing activity as previously described (Pearce et al., Proc. Natl. Acad. Sci. USA 98, 12843-12847, 2001).
The response to all AtPep peptides in transgenic tobacco cells expressing either AtPEPR1 or AtPEPR2 was analyzed by the medium alkalinization assay.

[4] = tested on: OsPEPR1; test: Medium alkalinization of transgenic tobacco cells expressing OsPEPR1; type: cell-based, rice; settings: for pEC50: read-out: half-maximal activity
Description: We identified rice homologues of AtPEPR1 in the Rice Annotation Project database (see the website located at www.rapdb.dna.affrc.go.jp). The rice homologues, OsPEPR1 (Os08g0446200) and OsPEPR2 (Os08g0446400), have 60% and 62% amino acid similarities, respectively. The OsPEPR1 has 26 LRRs in the extracellular region, which is the same as AtPEPR1. The OsPEPR2 has a shorter extracellular region with 22 LRRs. Transgenic tobacco cells expressing either OsPEPR1 or OsPEPR2 were created to examine the possibility of receptor binding to monocot peptides. OsPep3a, OsPep3b, OsPep3c, ZmPep1 and ZmPep4a were supplied to suspension cultured transgenic tobacco cells, and medium pH was measured. OsPep3a, OsPep3b, ZmPep1 and ZmPep4a caused medium alkalinization in OsPEPR1 expressing cells with a 1.2 pH unit increase and a half-maximal activity of 0.25 nM.

[5] = tested on: P. syringae pv. tomato DC3000 (Pst DC3000); test: Pst DC3000 inoculation of Arabidopsis leaves with peptide pre-infiltration; type: in vivo, Pseudomonas syringae; settings: wild type, cfu/cm^2 4 days after infection; AtPep1 10 nM solution
Description: The resistance to P. irregulare requires the JA signaling pathway in Arabidopsis (Staswick et al, Plant J. 15: 747-754, 1998), and AtPep peptides induced PDF1.2, a marker gene for the JA response (Huffaker et al., Proc. Natl. Acad. Sci. USA 103: 10098-10103, Huffaker and Ryan, Proc. Natl. Acad. Sci. USA 104: 10732-10736, 2007). […] In order to examine this possibility, Arabidopsis plants were inoculated with P. syringae pv. tomato DC3000 (Pst DC3000) with or without AtPep1 pre-infiltration. Pst DC3000 was extracted from the infected leaves 4 days after infection and colony forming units (cfu/cm^2) were calculated. […] The reduction of Pst DC3000 growth was also not observed when the double mutant, pepr1-1/pepr2-1, was pre-infiltrated with AtPep1. […] Pre-infiltration of AtPep2-6 also attenuated Pst DC3000 growth to different degrees.
To assess the importance of AtPEPR1 and AtPEPR2 in the resistance to Pst DC3000 after infiltration of AtPep1, T-DNA insertional mutants were inoculated. When 1 μM AtPep1 was infiltrated into leaves one day prior to Pst DC3000 inoculation, the size of the necrotic regions were reduced in both wild type and single mutant lines, pepr1-1 and pepr2-1. […] Similar results were obtained when another set of mutant lines, pepr1-2, pepr2-2 and pepr1-2/pepr2-2, was used.

[6] = Arabidopsis suspension cultured cells, pH of media after 20 min
[7] = AtPEPR1 expressing tobacco cells

OsPEPR1, sequence (as listed by the source): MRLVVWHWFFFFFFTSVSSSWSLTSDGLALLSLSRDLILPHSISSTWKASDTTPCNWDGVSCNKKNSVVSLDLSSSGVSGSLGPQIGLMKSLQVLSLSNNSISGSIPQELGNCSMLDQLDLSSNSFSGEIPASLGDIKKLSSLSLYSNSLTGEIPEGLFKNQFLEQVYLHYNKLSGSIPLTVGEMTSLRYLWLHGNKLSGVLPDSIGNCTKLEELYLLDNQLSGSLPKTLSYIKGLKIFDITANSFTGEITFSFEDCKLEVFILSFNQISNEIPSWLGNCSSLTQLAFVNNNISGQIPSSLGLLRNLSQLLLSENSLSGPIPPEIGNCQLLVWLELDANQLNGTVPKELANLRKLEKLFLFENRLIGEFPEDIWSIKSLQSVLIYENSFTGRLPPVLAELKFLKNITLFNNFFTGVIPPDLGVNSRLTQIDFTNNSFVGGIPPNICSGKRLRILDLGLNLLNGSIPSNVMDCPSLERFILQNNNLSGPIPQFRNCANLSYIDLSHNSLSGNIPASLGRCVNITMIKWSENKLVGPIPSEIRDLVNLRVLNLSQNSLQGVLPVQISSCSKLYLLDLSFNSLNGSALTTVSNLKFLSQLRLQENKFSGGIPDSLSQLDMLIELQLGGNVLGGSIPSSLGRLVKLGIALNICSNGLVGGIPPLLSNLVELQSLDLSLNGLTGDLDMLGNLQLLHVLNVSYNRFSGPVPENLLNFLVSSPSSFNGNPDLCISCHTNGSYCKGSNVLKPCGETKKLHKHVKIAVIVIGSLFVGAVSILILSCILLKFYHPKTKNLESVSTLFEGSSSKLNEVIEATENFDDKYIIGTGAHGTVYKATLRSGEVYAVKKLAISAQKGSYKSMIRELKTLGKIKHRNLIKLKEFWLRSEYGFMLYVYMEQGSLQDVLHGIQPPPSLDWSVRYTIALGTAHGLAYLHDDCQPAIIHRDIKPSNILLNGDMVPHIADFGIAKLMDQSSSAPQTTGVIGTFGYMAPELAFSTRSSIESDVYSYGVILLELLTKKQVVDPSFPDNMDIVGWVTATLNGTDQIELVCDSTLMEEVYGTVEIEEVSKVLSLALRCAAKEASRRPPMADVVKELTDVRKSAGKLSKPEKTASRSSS

## CC(C)[C@H](NC(=O)[C@H](CCCCN)NC(=O)[C@@H](NC(=O)[C@H](C)NC(=O)[C@@H](N)Cc1ccc(O)c(I)c1)[C@@H](C)O)C(=O)N[C@@H](CCCCN)C(=O)N[C@@H](C)C(=O)N[C@@H](CCCCN)C(=O)N[C@@H](CCC(N)=O)C(=O)N[C@@H](CCCNC(=N)N)C(=O)NCC(=O)N[C@@H](CCCCN)C(=O)N[C@@H](CCC(=O)O)C(=O)N[C@@H](CCCCN)C(=O)N[C@H](C(=O)N[C@@H](CO)C(=O)N[C@@H](CO)C(=O)NCC(=O)N[C@@H](CCCNC(=N)N)C(=O)N1CCC[C@H]1C(=O)NCC(=O)N[C@@H](CCC(N)=O)C(=O)N[C@@H](Cc1c[nH]cn1)C(=O)N[C@@H](CC(N)=O)C(=O)O)C(C)C [mono-iodo-Tyr-AtPep1] (H-[Tyr(3-I)]ATKVKAKQRGKEKVSSGRPGQHN-OH)
[1]; [6]
  activity in the alkalinization assay: as fully active as AtPep1
[2]
  time to equilibration of binding: ≤ 4 min
[2]; 10^6 cells/assay
  peptide concentration saturating the sites: about 0.1 nM
[2]; Scatchard analysis of the saturation data, Arabidopsis suspension cultured cells
  pKd: 9.60
[2]; saturation kinetics
  time to maximal binding to Arabidopsis cells: ≤ 10 min

## EIKARGKNKTKPTPSSGKGGKHN (EIKARGKNKTKPTPSSGKGGKHN) [AtPep4]
[3]; [7]
  change in pH: did not increase medium pH
  alkalinization of the medium: weaker activity

## ITAVLRRRPRPPPYSSGRPGQNN [AtPep6, ITAVLRRRPRPPPYSSGRPGQNN]
[3]
  pEC50: ~9.60
[3]; [7]
  maximal change: 1.2 pH units

## azido-Cys-AtPep1: Cys-AtPep1 coupled through a disulfide bond to the photoaffinity cross-linker APDP (C(APDP″)ATKVKAKQRGKEKVSSGRPGQHN)
[1]; [6]
  activity in the alkalinization assay: as fully active as the native peptide

## GLPGKKNVLKKSRESSGKPGGTN [AtPep5, GLPGKKNVLKKSRESSGKPGGTN]
[3]
  pEC50: ~9.60

## VRRRPTTPGRPREGSGGNGGNHH [ZmPep1, VRRRPTTPGRPREGSGGNGGNHH]
[4]
  medium pH increase: 1.2 pH unit
  pEC50: 9.60

## VSGNVAARKGKQQTSSGKGGGTN (VSGNVAARKGKQQTSSGKGGGTN) [AtPep7]
[3]; [7]
  change in pH: did not increase medium pH
  alkalinization of the medium: weaker activity

## 15-mer RGKEKVSSGRPGQHN with Gly at position 9 replaced by Ala; inactive derivative of AtPep1 [Gly to Ala substitution at position 9]
[1]; [6]
  activity in the alkalinization assay: little activity
[1]; Arabidopsis suspension cultured cells, pH of media after 20 min, read-out: half-maximal activity in the alkalinization assay
  pEC50: < 6.60
[2]
  competition with the non-substituted 15-mer for receptor binding: neither of these analogs were able to compete
[5]
  Pst DC3000 growth in leaves after pre-infiltration: not observed

## 15-mer RGKEKVSSGRPGQHN with Ser at position 7 replaced by Ala (-ASGR-) [Ser to Ala substitution at position 7]
[1]; [6]
  activity in the alkalinization assay: little activity
[2]
  competition with the non-substituted 15-mer for receptor binding: neither of these analogs were able to compete

## SSGRPGQHN
[1]; [6]
  activity in the alkalinization assay: inactive

## RRPTPPGGAGPREGSGGRGGVIH [OsPep3b, RRPTPPGGAGPREGSGGRGGVIH]
[4]
  medium pH increase: 1.2 pH unit
  pEC50: 9.60

## RGKEKVSSGRPGQHN [Peptide 15-mer]
[1]; 0.25 nM
  activity at the lowest concentration tested: substantial activity
[1]; [6]
  activity in the alkalinization assay: nearly as active as the native peptide
